According to patent publication US9120812B2, “Pyrimidooxazocine derivatives as mTOR-inhibitors” (SANOFI, priority 2012, dated 2015):

What was measured:
[1] = biological target: mTOR (human recombinant aa mTOR 1360-2549) (Homo sapiens (Human), UniProt P42345); assay: mTOR enzymatic test by TR-FRET (phosphorylation of GFP-4EBP1); type: biochemical
Outline: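 After a 30 min room-temperature kinase reaction, EDTA (10 mM final) and Tb-labelled phospho-Thr46 antibody (2 nM final) were added and incubated 60 min. Energy transfer from Tb to phosphorylated GFP-4EBP1 was read at 340 nm excitation, emissions 490/520 nm. Values derive from the 520/490 fluorescence ratio.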

PI3Kα (p110α/p85α) = PI3Kα (p110α/p85α) (Homo sapiens (Human), UniProt P42336); assay: PI3Kα enzymatic test by measuring the consumption of ATP; type: biochemical
PI3Kα (p110α/p85α), sequence (P42336 whole entry): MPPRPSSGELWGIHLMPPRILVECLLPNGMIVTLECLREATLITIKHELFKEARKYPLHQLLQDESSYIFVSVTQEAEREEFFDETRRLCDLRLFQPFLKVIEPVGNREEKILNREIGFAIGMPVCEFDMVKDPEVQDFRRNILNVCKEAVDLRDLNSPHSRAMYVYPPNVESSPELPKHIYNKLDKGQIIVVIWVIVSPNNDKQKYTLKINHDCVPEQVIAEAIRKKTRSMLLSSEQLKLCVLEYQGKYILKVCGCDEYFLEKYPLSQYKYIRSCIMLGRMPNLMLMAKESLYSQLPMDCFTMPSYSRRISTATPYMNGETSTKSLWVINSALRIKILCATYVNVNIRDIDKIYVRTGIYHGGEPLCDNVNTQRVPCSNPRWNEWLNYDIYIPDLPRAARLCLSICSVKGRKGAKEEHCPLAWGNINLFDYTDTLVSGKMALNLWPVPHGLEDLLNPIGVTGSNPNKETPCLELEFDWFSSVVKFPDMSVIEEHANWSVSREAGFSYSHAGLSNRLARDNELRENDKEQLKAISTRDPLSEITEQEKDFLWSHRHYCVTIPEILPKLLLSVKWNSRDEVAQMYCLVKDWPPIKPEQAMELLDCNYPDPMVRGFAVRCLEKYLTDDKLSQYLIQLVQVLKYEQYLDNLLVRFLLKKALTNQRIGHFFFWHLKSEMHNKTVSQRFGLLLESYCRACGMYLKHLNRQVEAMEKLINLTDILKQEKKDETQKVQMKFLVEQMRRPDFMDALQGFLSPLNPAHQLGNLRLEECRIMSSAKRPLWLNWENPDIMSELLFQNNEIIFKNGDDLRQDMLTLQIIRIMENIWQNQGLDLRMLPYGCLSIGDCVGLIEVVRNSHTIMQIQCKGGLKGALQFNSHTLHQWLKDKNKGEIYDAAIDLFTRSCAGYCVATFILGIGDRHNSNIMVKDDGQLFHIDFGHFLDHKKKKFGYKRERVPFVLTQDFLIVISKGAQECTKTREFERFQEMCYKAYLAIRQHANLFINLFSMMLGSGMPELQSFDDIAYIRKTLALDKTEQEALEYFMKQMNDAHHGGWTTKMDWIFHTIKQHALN
PI3Kα (p110α/p85α), sequence (P27986 whole entry partner): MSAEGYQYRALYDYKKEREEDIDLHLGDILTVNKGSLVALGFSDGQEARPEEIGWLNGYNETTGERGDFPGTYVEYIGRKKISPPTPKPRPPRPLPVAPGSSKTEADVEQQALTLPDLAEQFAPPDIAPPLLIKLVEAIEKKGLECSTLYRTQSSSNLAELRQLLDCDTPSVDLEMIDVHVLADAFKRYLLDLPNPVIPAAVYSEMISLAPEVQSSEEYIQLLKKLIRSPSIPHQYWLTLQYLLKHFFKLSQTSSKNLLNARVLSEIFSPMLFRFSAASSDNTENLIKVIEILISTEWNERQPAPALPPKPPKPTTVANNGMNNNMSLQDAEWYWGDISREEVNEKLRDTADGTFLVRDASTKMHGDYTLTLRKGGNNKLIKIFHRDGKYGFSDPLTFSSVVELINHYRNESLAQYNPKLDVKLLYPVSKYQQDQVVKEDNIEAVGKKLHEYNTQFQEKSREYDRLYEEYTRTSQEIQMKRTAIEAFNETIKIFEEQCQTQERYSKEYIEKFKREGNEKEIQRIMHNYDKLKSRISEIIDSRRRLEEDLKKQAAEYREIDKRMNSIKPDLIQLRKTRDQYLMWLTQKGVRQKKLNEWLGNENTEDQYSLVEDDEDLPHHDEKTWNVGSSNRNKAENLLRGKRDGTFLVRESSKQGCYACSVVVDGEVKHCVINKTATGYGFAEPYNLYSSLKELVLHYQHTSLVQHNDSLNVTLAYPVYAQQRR
Outline: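 ATP consumption read out by KinaseGlo luminescence after a 90 min reaction of 1.7 μg/ml PI3Kα (p110α/p85α) with 2 μM ATP and 50 μM PIP2, buffered at pH 7.5 (Tris, 10 mM MgCl2, 1 mM EGTA, 0.03% Chaps, 1 mM DTT). Threefold dilution series over ≥10 000-fold range yield IC50.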

U87MG tumour cells = assay: Test of in vitro proliferation of U87MG tumour cells; type: cell-based; details: Homo sapiens, U-87 MG, 72 h, U87MG cells, 72 hours; read-out: U87 Cell Proliferation IC50
Protocol: Model 4: Test of in vitro Proliferation of U87MG Tumour Cells.
The cell growth is determined with the reagent CellTiter 96 AQueous One Solution Cell Proliferation Assay from Promega (Cat. No. G3581).

Akt-pS473 in U87MG cells = details: Homo sapiens, U-87 MG, read-out: U87 Akt-pS473 % Inhibition or IC50, nM (IC50), U87MG cells

mTOR (human recombinant aa mTOR 1360-2549), sequence (P42345 1360-2549): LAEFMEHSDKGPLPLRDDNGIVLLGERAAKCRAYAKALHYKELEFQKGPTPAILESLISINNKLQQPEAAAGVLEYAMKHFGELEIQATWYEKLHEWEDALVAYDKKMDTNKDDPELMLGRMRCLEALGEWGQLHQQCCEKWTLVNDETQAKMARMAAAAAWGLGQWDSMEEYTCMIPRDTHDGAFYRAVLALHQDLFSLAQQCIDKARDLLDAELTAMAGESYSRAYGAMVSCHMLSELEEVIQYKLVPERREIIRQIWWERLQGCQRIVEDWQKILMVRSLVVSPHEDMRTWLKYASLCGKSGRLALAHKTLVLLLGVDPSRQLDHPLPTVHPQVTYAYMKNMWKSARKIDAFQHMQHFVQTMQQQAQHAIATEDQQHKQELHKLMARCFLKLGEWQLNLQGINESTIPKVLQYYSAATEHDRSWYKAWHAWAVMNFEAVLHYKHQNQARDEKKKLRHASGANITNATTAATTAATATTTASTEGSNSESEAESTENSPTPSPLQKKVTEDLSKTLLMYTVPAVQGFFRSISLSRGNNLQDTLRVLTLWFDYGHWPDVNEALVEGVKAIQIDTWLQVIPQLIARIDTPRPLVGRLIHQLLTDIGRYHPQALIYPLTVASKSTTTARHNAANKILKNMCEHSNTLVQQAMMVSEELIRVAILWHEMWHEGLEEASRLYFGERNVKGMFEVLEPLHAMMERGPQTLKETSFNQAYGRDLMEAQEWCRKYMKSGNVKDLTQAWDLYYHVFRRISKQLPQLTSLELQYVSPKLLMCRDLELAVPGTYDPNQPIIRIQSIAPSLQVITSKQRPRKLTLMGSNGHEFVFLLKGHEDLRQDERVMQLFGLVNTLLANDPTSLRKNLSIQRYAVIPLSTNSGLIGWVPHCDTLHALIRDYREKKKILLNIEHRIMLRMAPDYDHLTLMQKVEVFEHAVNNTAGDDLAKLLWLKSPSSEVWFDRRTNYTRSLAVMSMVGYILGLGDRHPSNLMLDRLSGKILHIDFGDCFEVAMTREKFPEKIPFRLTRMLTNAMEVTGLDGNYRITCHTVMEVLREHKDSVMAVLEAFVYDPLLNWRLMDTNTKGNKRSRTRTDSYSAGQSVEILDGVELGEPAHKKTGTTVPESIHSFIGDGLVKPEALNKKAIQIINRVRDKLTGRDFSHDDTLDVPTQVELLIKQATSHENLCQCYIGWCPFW

For `CCN1CC(C)(C)Oc2nc(N3CC4CCC(C3)O4)nc(-c3ccc(NC(=O)Nc4cc(C)on4)cc3)c2C1=O` [Example 116, 1-{4-[6-Ethyl-8,8-dimethyl-2-(8-oxa-3-azabicyclo[3.2.1]oct-3-yl)-5-oxo-5,6,7,8-tetrahydro-9-oxa-1,3,6-triazabenzocyclohepten-4-yl]phenyl}-3-(5-methylisoxazol-3-yl)urea], the IC50 [1] was 42 nM, the “PI3Ka IC50” value (PI3Kα (p110α/p85α)) was 4310 nM and the IC50 (U87MG tumour cells) was 282 nM. The IC50 (Akt-pS473 in U87MG cells) was 98 nM.
For `CCN1CC(C)(C)Oc2nc(N3CC4CCC(C3)O4)nc(-c3ccc(NC(=O)NCCO)cc3)c2C1=O` [Example 117, 1-{4-[6-Ethyl-8,8-dimethyl-2-(8-oxa-3-azabicyclo[3.2.1]oct-3-yl)-5-oxo-5,6,7,8-tetrahydro-9-oxa-1,3,6-triazabenzocyclohepten-4-yl]phenyl}-3-(2-hydroxyethyl)urea], the IC50 [1] was 25 nM, the “PI3Ka IC50” value (PI3Kα (p110α/p85α)) was 7410 nM and the IC50 (U87MG tumour cells) was 1700 nM. It also gave an IC50 (Akt-pS473 in U87MG cells) of 812 nM.
For `CCN1CC(C)(C)Oc2nc(N3C4CCC3COC4)nc(-c3ccc(NC(=O)Nc4ccc(N5CCOCC5(C)C)nc4)c(F)c3)c2C1=O` [Example 257, 1-[6-(3,3-Dimethylmorpholin-4-yl)pyridin-3-yl]-3-{4-[6-ethyl-8,8-dimethyl-2-(3-oxa-8-azabicyclo[3.2.1]oct-8-yl)-5-oxo-5,6,7,8-tetrahydro-9-oxa-1,3,6-triazabenzocyclohepten-4-yl]-2-fluorophenyl}urea], the IC50 [1] was 142 nM, the “PI3Ka IC50” value (PI3Kα (p110α/p85α)) was over 10000 nM and the IC50 (U87MG tumour cells) was 63 nM. For the same molecule, the IC50 (Akt-pS473 in U87MG cells) was 46 nM.
`CCN1CC(C)(C)Oc2nc(N3CC4CCC(C3)O4)nc(-c3ccc(NC(=O)Nc4ccc(N5CCN(C)CC5)cc4)cc3)c2C1=O` [Example 205, 1-{4-[6-Ethyl-8,8-dimethyl-2-(8-oxa-3-azabicyclo[3.2.1]oct-3-yl)-5-oxo-5,6,7,8-tetrahydro-9-oxa-1,3,6-triazabenzocyclohepten-4-yl]phenyl}-3-[4-(4-methylpiperazin-1-yl)phenyl]urea] was tested, and the IC50 [1] was 63 nM, the “PI3Ka IC50” value (PI3Kα (p110α/p85α)) was 3740 nM and the IC50 (U87MG tumour cells) was 22 nM. For the same molecule, the IC50 (Akt-pS473 in U87MG cells) was 13 nM.
With `CC1(C)CN(C2CCOCC2)C(=O)c2c(nc(N3CC4CCC(C3)O4)nc2-c2ccc(NC(=O)Nc3ccon3)cc2)O1` [Example 157, 1-{4-[8,8-Dimethyl-2-(8-oxa-3-azabicyclo[3.2.1]oct-3-yl)-5-oxo-6-(tetrahydropyran-4-yl)-5,6,7,8-tetrahydro-9-oxa-1,3,6-triazabenzocyclohepten-4-yl]phenyl}-3-isoxazol-3-ylurea] the IC50 [1] was 27 nM, the “PI3Ka IC50” value (PI3Kα (p110α/p85α)) was over 10000 nM and the IC50 (U87MG tumour cells) was 260 nM. The IC50 (Akt-pS473 in U87MG cells) was 67 nM.
With `CCN1CC(C)(C)Oc2nc(N3CCOC[C@@H]3C)nc(-c3ccc(NC(=O)Nc4ccc(OC)cn4)c(F)c3)c2C1=O` [Example 163, 1-{4-[6-Ethyl-8,8-dimethyl-2-((S)-3-methylmorpholin-4-yl)-5-oxo-5,6,7,8-tetrahydro-9-oxa-1,3,6-triazabenzocyclohepten-4-yl]-2-fluorophenyl}-3-(5-methoxypyridin-2-yl)urea] the IC50 [1] was 55 nM, the “PI3Ka IC50” value (PI3Kα (p110α/p85α)) was 3870 nM and the IC50 (U87MG tumour cells) was 1020 nM. The IC50 (Akt-pS473 in U87MG cells) was 130 nM.
For `CCN1CC(C)(C)Oc2nc(N3CCOC[C@@H]3C)nc(-c3ccc(NC(=O)Nc4ccc(C(=O)N(C)CCN(C)C)cc4)cc3)c2C1=O` [Example 215, N-(2-Dimethylamino-ethyl)-4-(3-{4-[6-ethyl-8,8-dimethyl-2-((S)-3-methylmorpholin-4-yl)-5-oxo-5,6,7,8-tetrahydro-9-oxa-1,3,6-triazabenzocyclohepten-4-yl]phenyl}ureido)-N-methylbenzamide], the IC50 [1] was 48 nM, the “PI3Ka IC50” value (PI3Kα (p110α/p85α)) was 37 nM and the IC50 (U87MG tumour cells) was 32 nM. For the same molecule, the IC50 (Akt-pS473 in U87MG cells) was 33 nM.
